We go through 20 compounds from US20010036944A1, “Certain benzothiazine dioxide endothelin antagonists and processes for their preparation” (priority 1997, published 2001).

The target of experiment [1] is T1, recombinant human ETAR (HETA) (Homo sapiens, UniProt P25101).
T1 construct: expressed in transfected cells; host or cells: Ltk- cells (membrane preparation)
T1 sequence (P25101 21-427): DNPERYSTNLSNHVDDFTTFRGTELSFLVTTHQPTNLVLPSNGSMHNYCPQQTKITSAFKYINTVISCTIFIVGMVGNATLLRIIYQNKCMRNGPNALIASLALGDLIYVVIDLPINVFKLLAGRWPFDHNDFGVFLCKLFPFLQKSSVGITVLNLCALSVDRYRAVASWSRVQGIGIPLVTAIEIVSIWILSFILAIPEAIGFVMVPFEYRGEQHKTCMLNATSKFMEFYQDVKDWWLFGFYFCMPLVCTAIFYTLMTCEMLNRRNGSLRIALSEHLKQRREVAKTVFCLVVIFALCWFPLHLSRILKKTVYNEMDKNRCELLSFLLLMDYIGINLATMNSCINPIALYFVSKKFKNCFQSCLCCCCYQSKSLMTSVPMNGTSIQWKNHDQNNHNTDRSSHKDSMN
Briefly: Radioligand binding, [125I]ET-1 to membranes of Ltk- cells expressing recombinant human ETAR (HETA). As to conditions: [125I]ET-1 binding, human ETA, Ltk- cell membranes; read-out: HETA (IC50). How it is done: (§1) The following cultured cells were used in binding experiments: Ltk-cells expressing recombinant human ETAR (HETA), and CHOKI cells expressing recombinant human ETBR (HETB).
(§2) Membranes were prepared from cultured cells by lysing cells in cold lysis buffer (5 mM HEPES, 2 mM EDTA, pH 7.4) and homogenizing with a Dounce “A” homogenizer. The homogenate was centrifuged at 30,000×g for 20 minutes at […]. Membrane pellets were suspended in cold buffer containing 20 mM Tris, 2 mM EDTA, 200 μM Pefabloc, 10 μM phosphoramidon, 10 μM leupeptin, 1 μM pepstatin at pH 7.4 and frozen at […] until use. Membranes were thawed and homogenized with a Brinkmann Polytron then diluted in tissue buffer containing 20 mM Tris, 2 mM EDTA, 200 μM Pefabloc, and 100 μM bacitracin (pH 7.4). Radioligand and competing ligands were prepared in binding buffer containing 20 mM Tris, 2 mM EDTA, and 0.1% BSA.
(§3) The assay was terminated by filtration over Whatman GF/B filters which were presoaked with 50 mM Tris, pH 7.4 containing 0.2% BSA and 100 μM bacitracin. Nonspecific binding was defined as binding in the presence of 100 nM ET-1.

For experiment [2], the target named is T2, recombinant human ETBR (HETB) (Homo sapiens, UniProt P24530).
T2 construct: expressed in transfected cells; host or cells: CHOKI (CHO-K1) cells (membrane preparation)
T2 sequence (P24530 27-442): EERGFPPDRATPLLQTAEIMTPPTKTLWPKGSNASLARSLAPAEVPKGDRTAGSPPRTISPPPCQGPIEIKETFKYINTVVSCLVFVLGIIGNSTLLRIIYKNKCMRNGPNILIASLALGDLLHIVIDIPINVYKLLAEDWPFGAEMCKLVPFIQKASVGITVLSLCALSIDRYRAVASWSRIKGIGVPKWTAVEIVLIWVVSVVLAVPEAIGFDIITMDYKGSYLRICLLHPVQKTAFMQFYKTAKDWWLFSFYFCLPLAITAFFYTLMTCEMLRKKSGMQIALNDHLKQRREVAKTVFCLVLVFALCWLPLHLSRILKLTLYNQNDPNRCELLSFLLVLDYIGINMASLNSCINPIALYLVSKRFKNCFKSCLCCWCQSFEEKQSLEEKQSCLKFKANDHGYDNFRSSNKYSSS
The experiment is described as follows: Radioligand binding, [125I]ET-1 to membranes of CHOKI cells expressing recombinant human ETBR (HETB). As to conditions: [125I]ET-1 binding, human ETB, CHOKI cell membranes. Here is the method: as §1, §2, §3

Experiment [3] relates to ETA, rabbit femoral artery. Briefly: Antagonism of ET-1 stimulated vasoconstriction (VERAA) in the rabbit femoral artery (ETA). As to conditions: ET-1 stimulated vasoconstriction, rabbit femoral artery. The source says:
In Vitro Antagonism of ET-1 Stimulated Vasoconstriction (VERAA) in the Rabbit Femoral Arterv (ETA) and Sarafotoxin 6C Stimulated Vasoconstriction in the Rabbit Pulmonarv Artery (ETB)
Male New Zealand rabbits were killed by cervical dislocation and exsanguination. Femoral and pulmonary arteries were isolated, cleaned of connective tissue, and cut into 4mm rings. The endothelium was denuded by placing the rings over hypodermic tubing (32 gauge for femoral rings and 28 gauge for pulmonary rings, Small Parts, Inc., Miami, Fla.) and gently rolling them. Denuded rings were mounted in 20 mL organ baths containing Krebsbicarbonate buffer (composition in mM: NaCl, 118.2; NaHCO3, 24.8; KCl, 4.6; MgSO4 7H2O, 1.2; KH2PO4, 1.2; CaCl2 2H2O; CaNa2 EDTA, 0.026;, dextrose, 10.0), that was maintained at 37° C. and gassed continuously with 5% CO2 in oxygen (pH 7.4). Resting tension was adjusted to 3.0 g for femoral and 4.0 g pulmonary arteries; the rings were left for 90 minutes to equilibrate. Vascular rings were tested for lack of functional endothelium (ie, lack of an endotheliumdependent relaxation response to carbachol ([…]) in norepinephrine ([…]) contracted rings. Agonist peptides, ET-1 -(femoral), and S6c (pulmonary), were cumulatively added at 10-minute intervals. The ET antagonists were added 30 minutes prior to adding the agonist.

As for “4-(6-Methoxybenzo[1,3]dioxol-5-yl)-1,1-dioxo-2-(2-trifluoro-methyl-phenyl)-1,2-dihydro-1λ^6-benzo[e]r [1,2]thiazine-3-carboxylic acid [Example 30]”, the IC50 in experiment [1] was 0.095 µM; in experiment [2] it was > 2.5 µM.
Consider `O=C(O)C1=C(c2ccc3c(c2)OCO3)c2ccccc2S(=O)(=O)N1c1ccc(Cl)cc1Cl` [Example 22], for which the IC50 came out at 0.05 µM in experiment [1] and 13 µM in experiment [2].
In the same order, the values of `Cc1c(Cl)cccc1N1C(C(=O)O)=C(c2ccc3c(c2)OCO3)c2ccccc2S1(=O)=O` [Example 24] are 0.03 µM and 17 µM.
For `Cc1noc(N2C(C(=O)O)=C(c3ccc4c(c3)OCO4)c3ccccc3S2(=O)=O)c1C` [Example 28] the same measures were 0.09 µM and > 25 µM.
For `COc1cc(C2=C(C(=O)O)N(c3ccccc3Cl)S(=O)(=O)c3ccccc32)cc2c1OCO2` [Example 4, 2-(2-Chloro-phenyl)-4-(7-methoxy-benzo[1,3]dioxol-5-yl)-1,1-dioxo-1,2-dihydro-1λ^6-benzo[e][1,2]-thiazine-3-carboxylic acid], the figures for the IC50 in experiment [1] and in experiment [2] were 0.003 µM and 5.6 µM, respectively.
For the compound `COc1cc(C2=C(C(=O)[O-])N(c3c(C)cccc3C)S(=O)(=O)c3ccccc32)cc2c1OCO2.[Na+]` [Example 6, 2-(2,6-Dimeth Iphenyl)4-(7-methoxy-benzo-[1,3]dioxol-5vl)-1,1 dioxo 1,2dihydro 1λ^6-benzo[e][1,2]thiazine-3-carboxylic acid monosodium salt], the results for the IC50 in experiment [1] and in experiment [2] were 0.004 µM and > 2.5 µM, respectively. In experiment [3], the “VERAA (pA2)” value came out at 7.1.
Turning to `COc1ccc(N2C(C(=O)O)=C(c3ccc4c(c3)OCO4)c3ccccc3S2(=O)=O)c(Cl)c1` [Example 23, 4-Benzo[1,3]dioxol-5-yl-2-(2-chloro-4-methoxyphenyl)-1,1-dioxo-1,2-dihydro-1λ^6-benzo[e][1,2]thiazine-3-carboxylic acid], the IC50 in experiment [1] is 0.021 µM; in experiment [2] it was 6.2 µM.
Turning to `COc1cc(OC)cc(C2=C(C(=O)O)N(c3ccccc3Cl)S(=O)(=O)c3ccccc32)c1` [Example 2], the IC50 in experiment [1] was found to be 0.002 µM; in experiment [2], 7.3 µM. Also, the “VERAA (pA2)” value in experiment [3] was 6.6.
As for “4-(3,5-Dimethyl-phenyl)-2-(2-trifluoro-methyl-phenyl)-1,1-dioxo-1,2dihydro-1λ^6-benzo[e][1,2]thiazine-3-carboxylic acid [Example 31]”, the IC50 in experiment [1] is 0.006 µM; in experiment [2] it was > 2.5 µM. Also, in experiment [3], the “VERAA (pA2)” value is 5.7.
Consider `O=C(O)C1=C(c2ccc3c(c2)OCO3)c2ccccc2S(=O)(=O)N1c1cccc(Cl)c1Cl` [Example 21, 4-Benzo-[1,3]dioxol-5-yl-2-(2,3-dichlorophenyl)1,1-dioxo-1,2dihydro1λ^6-benzo [e][1,2]thiazine-3-carboxylic acid], for which the IC50 in experiment [1] turned out to be 0.03 µM; in experiment [2], 13 µM.
Consider `COc1cc(C2=C(C(=O)O)N(c3ccccc3C)S(=O)(=O)c3ccccc32)cc2c1OCO2` [Example 8, 4-(7-Methoxy-benzo[1,3]dioxol-5-yl)-1,1-dioxo-2o-tolyl-1,2-dihydro-1,6-benzo[e][1,2]-thiazine-3-carboxylic acid], for which the IC50 turned out to be 0.008 µM in experiment [1] and 3.9 µM in experiment [2]. The “VERAA (pA2)” value in experiment [3] turned out to be 6.5.
Turning to `CCc1ccccc1N1C(C(=O)O)=C(c2ccc3c(c2)OCO3)c2ccccc2S1(=O)=O` [Example 13, 4-Benzo [1,3]dioxol-5-yl-2-(2ethyl-phenyl)-1,1-dioxo-1,2-dihydro-1λ^6-benzo[e][1,2]thiazine-3-carboxylic acid], the IC50 in experiment [1] is 0.023 µM; in experiment [2], > 2.5 µM.
As to `O=C(O)C1=C(c2ccc3c(c2)OCO3)c2ccccc2S(=O)(=O)N1c1ccccc1-n1cccc1` [Example 27, 4-Benzo[1,3]dioxol-5-yl-1,1-dioxo-2-(2-2-pyrrol-1-ylphenyl)-1,2-dihydro-1λ^6-benzo[e][12]thiazine-3-carboxylic acid], the IC50 was 0.04 µM in experiment [1] and 19 µM in experiment [2].
Take `COc1cc(C2=C(C(=O)O)N(c3ccccc3Cc3ccccc3)S(=O)(=O)c3ccccc32)cc2c1OCO2` [Example 5, 2-(2-Benzylphenyl)4-(7-methoxy-benzo[1,3]dioxo-5-yl)-1,1-dioxo-1,2-dihydro-1λ^6-benzo[e][1,2]thiazine-3-carboxylic acid]: the results for the IC50 in experiment [1] and in experiment [2] were 0.004 µM and 2 µM, respectively.
For `Cc1cccc(C)c1N1C(C(=O)O)=C(c2ccc3c(c2)OCO3)c2ccccc2S1(=O)=O` [Example 26, 4-Benzo[1,3]dioxol-5-yl-2-(2,6dimethyl-phenyl)-1,1-dioxo-1,2dihydro-1λ^6-benzo[e][1,2]thiazine-3-carboxylic acid], the figures for the IC50 in experiment [1] and in experiment [2] were 0.017 µM and > 25 µM, respectively.
For `COc1cc(OC)cc(C2=C(C(=O)O)N(c3ccccc3Br)S(=O)(=O)c3ccccc32)c1` [Example 3, 2-(2-Bromophenyl)-4-(3,5-dimethoxy-phenyl)-1,1-dioxo-1,2-dihydro-1 λ^6-benzo[e][1,2]thiazine-3-carboxylic acid] the same measures were 0.003 µM and > 2.5 µM.
As for `O=C(O)C1=C(c2ccc3c(c2)OCO3)c2ccccc2S(=O)(=O)N1c1ccccc1F` [Example 19, 4-Benzo-[1,3]dioxol-5-yl-2-(2-fluorohenyl)-1,1-dioxo-1,2dihydro-1λ^6-benzo[e]rl[2]thiazine-3-carboxylic acid], the results for the IC50 in experiment [1] and in experiment [2] were 0.11 µM and > 25 µM, respectively.
For `CC(C)c1ccccc1N1C(C(=O)O)=C(c2ccc3c(c2)OCO3)c2ccccc2S1(=O)=O` [Example 15, 4-Benzo[1,3]dioxol-5-yl-2-(2isopropylphenyl)-1,1-dioxo 1,2-dihydro 1λ^6-benzo[e][1,2]thiazine-3-carboxylic acid], the IC50 in experiment [1] stood at 0.09 µM; in experiment [2], 11 µM.
Take `CCCCc1ccccc1N1C(C(=O)O)=C(c2ccc3c(c2)OCO3)c2ccccc2S1(=O)=O` [Example 16, 4-Benzo[1,3]dioxol-5-yl-2-(2butylphenyl)-1,1-dioxo-1,2-dihydro-1λ^6-benzo[e][1,2]thiazine-3-carboxylic acid]: the figures for the IC50 in experiment [1] and in experiment [2] were 0.026 µM and > 2.5 µM, respectively.
On to `O=C(O)C1=C(c2ccc3c(c2)OCO3)c2ccccc2S(=O)(=O)N1c1ccccc1Cc1ccccc1` [Example 29, 4-Benzo[1,3]dioxol-5-yl-2-(2benzylphenyl)-1,1-dioxo-1,2-dihydro-1λ^6-benzo[e][1,2]thiazine-3-carboxylic acid], for which the IC50 was 0.04 µM in experiment [1] and > 2.5 µM in experiment [2].

In general, IC50 refers to the point on the concentration scale where inhibition reaches its midpoint.
